Inhibition and IC50 data for 16 molecules are collected here from patent US8148402B2, “Isoindolinone derivatives having inhibitory activity against T-type calcium channel and method for preparation thereof” (Korea Institute of Science and Technology, priority 2008, dated 2012).

As a reminder, the inhibition is the drop in the measured response relative to a control, in per cent. Broadly, the IC50 is the concentration that gives 50% inhibition.

Test [1] addresses T1, α1G T-type Ca2+ channels (Homo sapiens, UniProt O43497).
T1 construct: expressed in transfected cells
The test is described as follows: Assay for inhibitory activity against T-type calcium channel using FDSS6000. The format is cell-based. The note with it: HEK293 cells expressing α1G and Kir2.1, KCl (70 mM) depolarization, fluo3/AM, read-out: FDSS (% Inhibition, at 10 μM). The procedure:
Meanwhile, the novel compounds of Chemical Formula 1 in accordance with the present invention were assayed for antagonistic activity against T-type calcium channels. In this regard, an examination was made of the % inhibition of the compounds against T-type calcium channel using FDSS6000.
In the present invention, in order to search for an efficient inhibitor against T-type calcium channel, a primary assay for T-type calcium channel inhibiting activity was conducted by a high-efficient assay using FDSS6000, wherein mammal HEK293 cell lines (originated from human kidney carcinoma cells), which specifically express alG of T-type calcium channel, were used for the primary assay.
HEK293 cells which stably express both α1G and Kir2.1 subunits were grown in Dulbecoo's modified Eagle's medium supplemented with 10% (v/v) fetal bovine serum, penicillin (100 U/ml), streptomycin (100 µg/ml), geneticin (500 µg/ml), and puromycin (1 μg/ml) at 37° C. in a humid atmosphere of 5% CO2 and 95% air. Cells were seeded into 96-well black wall clear bottom plates at a density of 40,000 cells/well and were used on the next day for high-throughput screening (HTS) FDSS6000 assay. For FDSS6000 assay, cells were incubated for 60 min at room temperature with 5 µM fluo3/AM and 0.001% Pluronic F-127 in a HEPES-buffered solution composed of (in MM): 115 NaCl, 5.4 KCl, 0.8 MgCl2, 1.8 CaCl2, 20 HEPES, 13.8 glucose (pH 7.4). During fluorescence-based FDSS6000 assay, […]1G T-type Ca^2+ channels were activated using a high concentration of KCl (70 mM) in 10 mM CaCl2 contained HEPES-buffered solution, and the increase in [Ca^2+]i by KCl-induced depolarization was detected. All data were collected and analyzed using FDSS6000 and related software (Hamamatsu, Japan).

For test [2], the target named is T-type calcium channel (Homo sapiens, UniProt O43497). The test is described as follows: Measurement of ion currents through T-type calcium channel using automated patch clamp. The format is cell-based. The note with it: whole-cell automated patch clamp, HEK-293 cells expressing T-type calcium channel, 10 mM Ba2+. An excerpt: The selected compounds were used in a second assay for T-type calcium channel inhibiting activity using electrophysiological whole cell patch clamp method, wherein mammal HEK293 cell lines, which are originated from human kidney carcinoma cells and which specifically express alG of T-type calcium channel, were used for the second assay. As a reference drug, mibefradil which had been developed as T-type calcium channel inhibitor was used.
Stably expressed T-type calcium channels in Human Embryonic Kidney (HEK)-293 cell were provided by Korea Research Institute of Bioscience and Biotechnology (KRIBB) and hERG (human ether-a-go-go-related gene) channels induced by a Tet-expression system expressed in HEK-293 cell were purchased from Iongate (Frankfurt, Germany). In a humidified 5% CO2 incubator at 37° C., T-type calcium channel expressed cells were maintained in Dulbecco's modified Eagle's medium (DMEM) including 10% Fetal Bovine Serum (FBS), and hERG channel expressed cells were maintained in MEM with 10% FBS. For hERG channel expression, the Tet-expression system was activated by adding 1 μg/ml Doxycyclin into the hERG channel cell growth medium 20 h prior to use. Cell lines were subcultured once in three days and used for patch clamp recordings at final confluence of 50-80%. To harvest cells, cell detacher, Trypsin-EDTA (0.25×) was added into the dish and single cells were made using a pipette. Trypsin was removed by centrifugation at 1100 rpm for 3 min. Cells were automatically suspended after adding external cellular solution at room temperature.
The composition of solution for measuring T-type calcium channel and hERG channel activity is following: 140 mM NaCl, 2 mM CaCl2, 4 mM KCl, 1 mM MgCl2, 5 mM D-glucose and 10 mM HEPES (pH 7.4) for external cellular solution, 50 mM KCl, 10 mM NaCl, 60 mM KF, 2 mM MgCl2, 10 mM HEPES and 20 mM EGTA (pH 7.2) for internal cellular solution and 80 mM NaCl, 35 mM CaCl2, 3 mM KCl, 10 mM MgCl2 and 10 mM HEPES (pH 7.4) for seal enhancer. T-type calcium channel activity was recorded after adding 10 mM Ba^2+ into external solution. Each compound dissolved in 100% DMSO with a final concentration of 100 mM was diluted to 10 nM˜100 μM range in external solution with 10 mM Ba^2+ for T-type calcium channel and no Ba^2+ for hERG channel recordings.
In all experiments, auto patch clamp machine NPC©-16 Patchliner (Nanion Technologies, Germany) and whole-cell patch clamp technique were used. Channel current was recorded by EPC10 (HEKA, Germany) amplifier. Cell suspension and patch solutions were automatically divided into the chip (NPC-16 Chip, Nanion Technologies, Germany). Inward current was recorded at −20 mV depolarization potential at intervals of 10 s during 300 ms with −100 mV holding potential for T-type calcium channels, and tail current was recorded at −50 mV at intervals of 10 s during 500 ms after 20 mV depolarization during 200 ms with −80 mV holding potential for hERG channels. Compounds at each concentration were applied to the cell during 20 s. Inhibition curves and IC50 values were automatically calculated from peak currents using data analysis program, IGOR Pro (WaveMetrics, USA).
(In general: The patch-clamp technique gives a direct electrical read-out from membranes.)

Chain of T-type calcium channel (O43497 whole entry): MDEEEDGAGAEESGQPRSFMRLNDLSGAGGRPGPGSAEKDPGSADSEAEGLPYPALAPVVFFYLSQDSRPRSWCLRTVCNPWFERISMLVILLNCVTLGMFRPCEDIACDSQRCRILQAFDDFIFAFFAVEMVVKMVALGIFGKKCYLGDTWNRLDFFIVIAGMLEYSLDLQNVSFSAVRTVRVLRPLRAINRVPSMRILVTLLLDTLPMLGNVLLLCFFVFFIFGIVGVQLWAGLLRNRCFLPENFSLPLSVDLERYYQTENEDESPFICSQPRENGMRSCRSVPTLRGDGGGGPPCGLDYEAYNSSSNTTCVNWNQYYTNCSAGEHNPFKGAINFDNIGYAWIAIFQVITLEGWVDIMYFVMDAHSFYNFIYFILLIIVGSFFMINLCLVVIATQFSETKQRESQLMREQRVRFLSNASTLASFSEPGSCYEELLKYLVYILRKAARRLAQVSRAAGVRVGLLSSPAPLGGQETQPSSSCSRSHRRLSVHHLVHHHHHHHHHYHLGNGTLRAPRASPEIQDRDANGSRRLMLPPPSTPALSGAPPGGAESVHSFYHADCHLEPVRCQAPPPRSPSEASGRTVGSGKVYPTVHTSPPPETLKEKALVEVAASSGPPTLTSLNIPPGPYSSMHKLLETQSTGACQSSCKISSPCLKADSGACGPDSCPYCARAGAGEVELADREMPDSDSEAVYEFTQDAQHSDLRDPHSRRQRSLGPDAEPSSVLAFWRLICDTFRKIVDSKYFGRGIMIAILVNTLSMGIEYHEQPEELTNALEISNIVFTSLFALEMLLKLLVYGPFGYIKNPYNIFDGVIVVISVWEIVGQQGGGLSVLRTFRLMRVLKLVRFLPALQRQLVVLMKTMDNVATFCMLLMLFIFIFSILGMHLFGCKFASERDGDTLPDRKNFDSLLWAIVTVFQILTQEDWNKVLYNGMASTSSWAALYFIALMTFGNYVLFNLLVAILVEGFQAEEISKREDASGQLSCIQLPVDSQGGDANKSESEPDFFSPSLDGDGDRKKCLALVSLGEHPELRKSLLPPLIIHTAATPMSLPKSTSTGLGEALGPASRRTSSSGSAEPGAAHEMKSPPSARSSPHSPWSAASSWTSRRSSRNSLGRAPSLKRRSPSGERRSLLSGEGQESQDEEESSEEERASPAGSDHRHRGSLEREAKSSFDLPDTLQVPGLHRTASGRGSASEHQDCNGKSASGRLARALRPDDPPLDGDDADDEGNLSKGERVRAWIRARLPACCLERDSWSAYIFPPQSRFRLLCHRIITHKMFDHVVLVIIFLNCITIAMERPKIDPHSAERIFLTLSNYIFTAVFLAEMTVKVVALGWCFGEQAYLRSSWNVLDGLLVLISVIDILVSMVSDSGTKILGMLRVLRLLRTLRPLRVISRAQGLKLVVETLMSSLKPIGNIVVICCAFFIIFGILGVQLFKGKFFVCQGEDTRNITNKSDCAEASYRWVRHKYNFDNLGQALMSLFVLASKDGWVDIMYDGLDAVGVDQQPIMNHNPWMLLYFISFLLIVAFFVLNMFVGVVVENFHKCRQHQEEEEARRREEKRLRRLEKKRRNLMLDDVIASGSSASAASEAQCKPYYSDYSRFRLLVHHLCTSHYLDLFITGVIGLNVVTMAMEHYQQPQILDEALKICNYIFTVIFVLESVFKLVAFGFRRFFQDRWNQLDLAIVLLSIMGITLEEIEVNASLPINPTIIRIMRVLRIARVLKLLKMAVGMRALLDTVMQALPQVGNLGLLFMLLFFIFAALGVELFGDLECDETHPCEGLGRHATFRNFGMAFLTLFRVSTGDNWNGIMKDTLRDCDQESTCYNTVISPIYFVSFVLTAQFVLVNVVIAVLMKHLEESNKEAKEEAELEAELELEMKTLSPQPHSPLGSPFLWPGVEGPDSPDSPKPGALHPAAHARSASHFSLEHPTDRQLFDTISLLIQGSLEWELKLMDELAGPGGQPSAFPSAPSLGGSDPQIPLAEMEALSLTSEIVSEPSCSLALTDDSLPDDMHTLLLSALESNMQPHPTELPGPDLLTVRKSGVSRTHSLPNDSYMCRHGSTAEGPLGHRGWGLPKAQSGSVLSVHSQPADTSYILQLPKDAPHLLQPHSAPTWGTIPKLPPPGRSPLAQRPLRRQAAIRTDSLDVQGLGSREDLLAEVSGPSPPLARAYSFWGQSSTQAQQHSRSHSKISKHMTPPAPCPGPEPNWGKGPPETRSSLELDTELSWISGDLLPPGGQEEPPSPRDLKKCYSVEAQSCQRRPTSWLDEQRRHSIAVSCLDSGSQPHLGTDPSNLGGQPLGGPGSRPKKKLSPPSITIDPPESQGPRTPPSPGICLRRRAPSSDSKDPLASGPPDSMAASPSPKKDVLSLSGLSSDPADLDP
T1 sequence (O43497 whole entry): as above

`O=C(NCCCN1CCCCC1)c1ccc2c(c1)C(=O)N(Cc1ccccc1)C2` [Compound 1, 2-benzyl-3-oxo-N-(3-(piperidin-1-yl)propyl)isoindoline-5-carboxamide]: the inhibition at 10 µM in test [1] was 22%. In addition, the half-inhibitory concentration (IC50) in test [2] worked out at 9.57 µM.

As for `O=C(NCCCN1CCCCC1)c1ccc2c(c1)C(=O)N(Cc1ccc(Br)cc1)C2` [Compound 7, 2-(4-bromobenzyl)-3-oxo-N-(3-(piperidin-1-yl)propyl)isoindoline-5-carboxamide], the inhibition at 10 µM in test [1] was 33.4%. The IC50 in test [2] was determined as 9.77 µM.

As for `CCC1CCCCN1CCCNC(=O)c1ccc2c(c1)C(=O)N(Cc1cccc(Br)c1)C2` (centres unmarked) [Compound 24, 2-(3-bromobenzyl)-N-(3-(2-ethylpiperidin-1-yl)propyl)-3-oxoisoindoline-5-carboxamide], in test [1], the inhibition at 10 µM came to 46%. In test [2], the concentration for half-maximal inhibition (IC50) stood at 4.07 µM.

Consider `CCCC1CCCCN1CCCNC(=O)c1ccc2c(c1)C(=O)N(Cc1cccc(Br)c1)C2` (centres unmarked) [Compound 33, 2-(3-bromobenzyl)-3-oxo-N-(3-(2-propylpiperidin-1-yl)propyl)isoindoline-5-carboxamide], for which the inhibition at 10 µM in test [1] came out at 60.8%. Moreover, in test [2], the IC50 is 1.74 µM.

For the molecule `CCCC1CCCCN1CCCNC(=O)c1ccc2c(c1)C(=O)N(Cc1ccc(I)cc1)C2` (centres unmarked) [Compound 36, 2-(4-iodobenzyl)-3-oxo-N-(3-(2-propylpiperidin-1-yl)propyl)isoindoline-5-carboxamide], the inhibition at 10 µM in test [1] turned out to be 53.8%. Besides, in test [2], the IC50 was 6.87 µM.

Take `CC(C)C1CCCCN1CCCNC(=O)c1ccc2c(c1)C(=O)N(Cc1cccc(Cl)c1)C2` (centres unmarked) [Compound 40, 2-(3-chlorobenzyl)-N-(3-(2-isopropylpiperidin-1-yl)propyl)-3-oxoisoindoline-5-carboxamide]: the inhibition at 10 µM in test [1] stood at 56.7%. In addition, in test [2], the IC50 stood at 1.01 µM.

For `CC(C)C1CCCCN1CCCNC(=O)c1ccc2c(c1)C(=O)N(Cc1cccc(Br)c1)C2` (centres unmarked) [Compound 42, 2-(3-bromobenzyl)-N-(3-(2-isopropylpiperidin-1-yl)propyl)-3-oxoisoindoline-5-carboxamide], in test [1], the inhibition at 10 µM worked out at 44.4%. The IC50 in test [2] amounted to 4.15 µM.

`CC(C)C1CCCCN1CCCNC(=O)c1ccc2c(c1)C(=O)N(Cc1ccc(Br)cc1)C2` (centres unmarked) [Compound 43, 2-(4-bromobenzyl)-N-(3-(2-isopropylpiperidin-1-yl)propyl)-3-oxoisoindoline-5-carboxamide]: the inhibition at 10 µM in test [1] turned out to be 51.7%. The IC50 in test [2] came to 5.1 µM.

On to `CC(C)C1CCCCN1CCCNC(=O)c1ccc2c(c1)C(=O)N(Cc1cccc(I)c1)C2` (centres unmarked) [Compound 44, 2-(3-iodobenzyl)-N-(3-(2-isopropylpiperidin-1-yl)propyl)-3-oxoisoindoline-5-carboxamide], for which the inhibition at 10 µM in test [1] was found to be 60.7%. The IC50 in test [2] was determined as 4.36 µM.

In the case of `CC(C)C1CCCCN1CCCNC(=O)c1ccc2c(c1)C(=O)N(Cc1ccc(I)cc1)C2` (centres unmarked) [Compound 45, 2-(4-iodobenzyl)-N-(3-(2-isopropylpiperidin-1-yl)propyl)-3-oxoisoindoline-5-carboxamide], the inhibition at 10 µM in test [1] amounted to 58.9%. Also, the IC50 in test [2] was found to be 1.07 µM.

As to `CCCCC1CCCCN1CCCNC(=O)c1ccc2c(c1)C(=O)N(Cc1ccccc1)C2` (centres unmarked) [Compound 46, 2-benzyl-N-(3-(2-butylpiperidin-1-yl)propyl)-3-oxoisoindoline-5-carboxamide], the inhibition at 10 µM in test [1] came out at 55.3%. In addition, the IC50 in test [2] is 2.65 µM.

In the case of `CCCCC1CCCCN1CCCNC(=O)c1ccc2c(c1)C(=O)N(Cc1cccc(F)c1)C2` (centres unmarked) [Compound 47, N-(3-(2-butylpiperidin-1-yl)propyl)-2-(3-fluorobenzyl)-3-oxoisoindoline-5-carboxamide], the inhibition at 10 µM in test [1] is 49%. Further, the half-inhibitory concentration (IC50) in test [2] is 2.3 µM.

Regarding `CCCCC1CCCCN1CCCNC(=O)c1ccc2c(c1)C(=O)N(Cc1ccc(F)cc1)C2` (centres unmarked) [Compound 48, N-(3-(2-butylpiperidin-1-yl)propyl)-2-(4-fluorobenzyl)-3-oxoisoindoline-5-carboxamide], the inhibition at 10 µM in test [1] is 62.1%. The IC50 in test [2] amounted to 1.92 µM.

As to `CCCCC1CCCCN1CCCNC(=O)c1ccc2c(c1)C(=O)N(Cc1cccc(Cl)c1)C2` (centres unmarked) [Compound 49, N-(3-(2-butylpiperidin-1-yl)propyl)-2-(3-chlorobenzyl)-3-oxoisoindoline-5-carboxamide], in test [1], the inhibition at 10 µM came to 71.8%. For the same molecule, the IC50 in test [2] worked out at 0.62 µM.

As to `O=C(NCCCN1CCCCC1c1ccccc1)c1ccc2c(c1)C(=O)N(Cc1cccc(Br)c1)C2` (centres unmarked) [Compound 60, 2-(3-bromobenzyl)-3-oxo-N-(3-(2-phenylpiperidin-1-yl)propyl)isoindoline-5-carboxamide], the inhibition at 10 µM in test [1] worked out at 55.2%. Also, in test [2], the IC50 was determined as 1.54 µM.

On to `O=C(NCCCN1CCCCC1c1ccccc1)c1ccc2c(c1)C(=O)N(Cc1ccc(Br)cc1)C2` (centres unmarked) [Compound 61, 2-(4-bromobenzyl)-3-oxo-N-(3-(2-phenylpiperidin-1-yl)propyl)isoindoline-5-carboxamide], for which, in test [1], the inhibition at 10 µM was 45.6%. Further, the 50% inhibitory concentration (IC50) in test [2] came to 1.07 µM.
